Data reported in patent publication US20150310826A1, “DISPLAY DEVICE AND PHOTOTHERAPY METHOD USING THE SAME” (Samsung Display Co., Ltd., priority 2014, published 2015).

Key:
[1] = tested on: proinflammatory cytokine (1L-1α); experiment: Suppression of proinflammatory cytokine expression by irradiation of ultraviolet rays (ELISA); type: cell-based, human; details: after 10 mJ/cm^2 ultraviolet ray B; red light for 72 hours at 5 or 47.5 μW/cm^2
Experimental: 5×10^4 keratinocytes separated from the human epidermal tissue were put at a time on the 24-well test plate, and attached for 24 hours. Each well was washed by the PBS once, and 500 μl of the PBS was put on each well. After 10 mJ/cm^2 of ultraviolet rays were irradiated on the keratinocytes by using the ultraviolet ray B lamp, the PBS was taken out, and 350 μl of the cell cultivation medium (DMEM to which the […] was not added) was added. In addition, red light was irradiated in the culture medium of Experimental Example 1 for 72 hours to perform cultivation. 150 μl of cultivation supernatant was sampled to quantify proinflammatory cytokine (1L-1α) and thus judge the expression suppression effect of proinflammatory cytokine. The amount of proinflammatory cytokine was quantified by using the enzyme-linked immunosorbent assay, and ketoprofen known as the proinflammatory cytokine suppression material was used as the positive control group. The expression suppression ratio (%) of proinflammatory cytokine was calculated by the following Equation 7, and the result is described in the following Table 6.
Expression suppression ratio of […]

[2] = tested on: B16F10 melanocyte; experiment: Suppression of generation of melanin to the B16F10 melanocyte; type: cell-based, mouse; details: 72 hours; red light 20 μW/cm^2; absorbance at 405 nm
Experimental: The B16F10 melanocyte is a cell strain derived from a mouse, and is a cell secreting a black pigment that is called melanin. The B16F10 melanocyte used in the present Experimental Example was distributed from ATCC (American Type Culture Collection™), and used.
The B16F10 melanocyte was divided in the 2×10^6 concentration for each well on the 6-well plate, attached, and cultivated by irradiating red light in the culture medium of Experimental Example 1 for 72 hours. After cultivation for 72 hours, the cells were separated by trypsin-EDTA (ethylenediaminetetraacetic acid), the number of cells was measured, and centrifugation was performed to collect the cells. Quantification of melanin in the cell was performed by modifying the Lotan's method. […] Melanin extracted by adding 1N NaOH (10% dimethyl sulfoxide (DMSO)) to the filtrate of the cell obtained by centrifugation was dissolved, absorbance of melanin was measured by the microplate reader at 405 nm, and melanin was quantified to measure the melanin generation hindrance ratio (%) of the sample. […]
The melanin generation hindrance ratio (%) of the B16F10 melanocyte was calculated by the following Equation 4, and the result is described in the following Table 4. […]

[3] = tested on: HaCaT keratinocyte; experiment: Cell regeneration, MTT assay on HaCaT keratinocyte; type: cell-based; details: three days cultivation, red light 47.5 μW/cm^2, TGF-β 10 ng/ml
Experimental: On the 24-well plate, the HaCaT keratinocyte (German Cancer Research Institute, Germany) was inoculated into the DMEM (Dulbecco™ Modified Eagle′ Medium) to which the 10% FBS (fetal bovine serum) was added in the density of 2×10^5 cells/well, and cultivated for one day in the humidified culture medium of 37° C. and 5% CO2. After exchanging with the serum-free DMEM, red light was irradiated for three days in the culture medium in which the aforementioned display device was installed to perform cultivation. In order to perform the comparative experiment, red light having the similar wavelength was irradiated for three days to perform cultivation, and TGF-β (transforming growth factor beta) (10 ng/ml), which is the material known to have a cell regeneration effect, was used as the positive control group. Further, cultivation was performed for three days in the culture medium having no light irradiation function to use the resulting keratinocyte as the control group. The degrees of generation of the cell were compared and evaluated by using the MTT (Microculture Tetrazolium) assay method, and the experimental result is described in the following Table 1.
In general, regeneration of the skin cell is measured by the activation rate of the cell, and the activation rate of the cell is proportional to the absorbance (at 570 nm) in Table 1. […]

[4] = tested on: MMP-1; experiment: Suppression of generation of collagenase MMP-1 in fibroblast; type: cell-based, human; details: fibroblast supernatant; three days; red light 47.5 μW/cm^2; TGF-β 10 ng/ml
Experimental: (§1) The fibroblast (Korean Cell Line Bank, Korean) that was the human normal skin cell was inoculated on the 48-well microplate (Nunc™, Denmark) so that the number of cells was 1×10^6 for each well, cultivated in the DMEM medium (Sigma™, USA) under the condition of 37° C. for 24 hours, and cultivated by irradiating red light for three days in the culture medium of Experimental Example 1. In order to perform the comparative experiment, red light having the similar wavelength was irradiated for three days to perform cultivation, and TGF-β (10 ng/ml) known to have the effect of suppressing generation of collagenase MMP-1,2 was used as the positive control group. Cultivation was further performed for 48 hours in the culture medium having no light irradiation function to use the resulting fibroblast as the control group.
(§2) After cultivation, the supernatant liquid of each well was collected to measure the amount (ng/ml) of newly synthesized MMP-1,2 by using the MMP-1,2 analysis kit (Amersham™, USA), the MMP generation suppression ratio (%) was calculated according to the following Equation 2, and the result is described in the following Table 2.
(§3) MMP generation rate(%)=(Amount of MMP of the experimental group/Amount of MMP of the control group)×100 (Equation 2)

[5] = tested on: MMP-2; experiment: Suppression of generation of collagenase MMP-2 in fibroblast; type: cell-based, human; details: fibroblast supernatant; three days; red light 47.5 μW/cm^2; TGF-β 10 ng/ml
Experimental: as §1, §2, §3

[6] = tested on: procollagen type IC-peptide (PICP); experiment: Improvement of synthesis of collagen (PICP) in fibroblast; type: cell-based, human; details: red light 47.5 μW/cm^2 for 24 hours or 72 hours; TGF-β 10 ng/ml
Experimental: The fibroblast that was the human normal […] cell was inoculated on the 48-well microplate so that the number of cells was 1×10^6 for each well, cultivated in the DMEM medium for 24 hours, and cultivated by irradiating red light in a predetermined quantity for one day and three days in the culture medium of Experimental Example 1. In order to perform the comparative experiment, TGF-β (10 ng/ml) known to have the collagen synthesis improvement effect was used as the positive control group, and cultivation was further performed for 48 hours in the culture medium having no red light irradiation function to use the resulting fibroblast as the control group.
After cultivation, the supernatant liquid of each well was collected to measure the amount of procollagen type IC-peptide (PICP) by using the collagen kit (Takara™, Japan) and thus measure the amount of synthesized collagen. The collagen biosynthesis increase ratio (%) was calculated according to the following Equation 3, and the result is described in the following Table 3.
Collagen biosynthesis increase ratio(%)=(Amount of collagen of the experimental group/[…])×100 (Equation 3)

In the case of CC(C(=O)O)c1cccc(C(=O)c2ccccc2)c1 (stereo not shown) [compound 12, ketoprofen], the “Expression suppression ratio of proinflammatory cytokine (%)” value [1] is reported as 41.1%.

With Oc1ccc(O)cc1 [Comparative Example 10, hydroquinone] the “Melanin generation hindrance ratio (%)” value [2] was 73.1%.

In the case of OC[C@H]1O[C@@H](Oc2ccc(O)cc2)[C@H](O)[C@@H](O)[C@@H]1O [Comparative Example 11, arbutin], the “Melanin generation hindrance ratio (%)” value [2] is reported as 52.3%.

In the case of “TGF-β (transforming growth factor beta) [compound 3]”, the “Absorbance (at 570 nm)” value [3] is reported as 1.423, the “MMP-1 generation suppression ratio (%)” value [4] is reported as 75.1% and the “MMP-2 generation suppression ratio (%)” value [5] is reported as 76.2%. For the same molecule, the “Collagen biosynthesis increase ratio (%)” value [6] was 24.7%.
